Test results taken from patent US8067424B2, “Selective inhibitors for cyclin-dependent kinases” (Emory University, priority 2007, dated 2011).
Like-named read-outs stand apart in the source and are kept apart here.

How the values were obtained:
AURORA C = AURORA C (Homo sapiens, UniProt Q9UQB9); assay: Kinase screen: Aurora C assay; assay type: biochemical; conditions: read-out: Mean Remaining Enzyme Activity (%)
Protocol: Generally, the same procedure was used for all assays. Since the total assay volume was 25.5 microliters, 0.5 microliters of inhibitors at 51× assay concentration were added to the plates before any other addition.
The basic procedure was to add 0.5 microliters inhibitor/control in DMSO to plate. Fifteen microliters of enzyme/substrate/buffer mix were added and incubated for 5 min. Ten microliters MgATP at the relevant concentration were added and incubated for 30 min. The assay was stopped by adding 5 microliters of 3% orthophosphoric acid. The assay was transferred to a p81 filter plate and read in a scintillation counter of 30 sec/well. Note that this assay procedure was not followed for MKK1, which instead involved a two-step assay, and PKC alpha, which required the addition of lipid vesicles.
Aurora C assay: Aurora C (5-20 mU diluted in 50 mM Tris pH 7.5, 0.1 mM EGTA, 0.1% b-mercaptoethanol, 1 mg/ml BSA) was assayed against a substrate peptide ([…]) (SEQ ID NO: 26) in a final volume of 25.5 μl containing 50 mM Tris pH 7.5, 0.05% b-mercaptoethanol, 300 μM substrate peptide, 10 mM magnesium acetate and 0.005 mM [33P-g-ATP] (50-1000 cpm/pmole) and incubated for 30 min at room temperature. Assays were stopped by addition of 5 μl of 0.5 M (3%) orthophosphoric acid and then harvested onto P81 Unifilter plates with a wash buffer of 50 mM orthophosphoric acid.

M14 = assay: cells; conditions: Homo sapiens
OVCAR-5 = assay: cells; conditions: Homo sapiens
HL-60(TB) = assay: cells; conditions: Homo sapiens
T-47D = assay: cells; conditions: Homo sapiens, T47D
MALME-3M = conditions: for Mean Optical Densities / Percent Growth: MALME-3M
COLO 205 = assay: cells; conditions: Homo sapiens
ACHN = conditions: for Mean Optical Densities / Percent Growth: ACHN
NCI/ADR-RES = conditions: for Mean Optical Densities / Percent Growth: NCI/ADR-RES
KM12 = assay: cells; conditions: Homo sapiens
MOLT-4 = assay: cells; conditions: Homo sapiens
OVCAR-4 = assay: cells; conditions: Homo sapiens
[1] = SF-539, log10 concentration −4.0
[2] = SF-539, log10 concentration −5.0
[3] = SF-539, log10 concentration −6.0
[4] = SF-539, log10 concentration −7.0
[5] = SF-539, log10 concentration −8.0
[6] = MDA-MB-468, log10 concentration −4.0
[7] = MDA-MB-468, log10 concentration −5.0
[8] = MDA-MB-468, log10 concentration −6.0
[9] = MDA-MB-468, log10 concentration −7.0
[10] = MDA-MB-468, log10 concentration −8.0
[11] = NCI-H226, log10 concentration −4.0
[12] = NCI-H226, log10 concentration −5.0
[13] = NCI-H226, log10 concentration −6.0
[14] = NCI-H226, log10 concentration −7.0
[15] = NCI-H226, log10 concentration −8.0

Sequence of AURORA C (Q9UQB9 whole entry): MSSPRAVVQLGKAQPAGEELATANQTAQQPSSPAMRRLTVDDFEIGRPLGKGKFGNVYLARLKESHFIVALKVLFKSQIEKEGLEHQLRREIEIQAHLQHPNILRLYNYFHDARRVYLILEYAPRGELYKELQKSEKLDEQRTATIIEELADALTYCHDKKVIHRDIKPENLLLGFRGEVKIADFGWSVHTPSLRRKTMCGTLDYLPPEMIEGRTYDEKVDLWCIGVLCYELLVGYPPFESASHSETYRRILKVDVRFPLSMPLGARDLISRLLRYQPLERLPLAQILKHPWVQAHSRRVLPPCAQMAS

CC(C)c1cnn2c(NCc3ccccc3)cc(NCCCCCCCN)nc12 [BS-181]
remaining activity at 10 µM (AURORA C): 98%

CC(C)c1cnn2c(NCc3ccccc3)cc(N[C@@H](CO)[C@H](O)CO)nc12 [ICEC0318, (3S)-3-(7-(Benzylamino)-3-isopropylpyrazolo[1,5-a]pyrimidin-5-ylamino)butane-1,2,4-triol]
GI50 (M14; M14): 305 nM
CC50 (M14; M14, read-out: LC50): 45.2 µM
GI50 (OVCAR-5; OVCAR-5): 305 nM
CC50 (OVCAR-5; OVCAR-5, read-out: LC50): > 100 µM
GI50 (HL-60(TB); HL-60): 166 nM
CC50 (HL-60(TB); HL-60, read-out: LC50): > 100 µM
TGI (SF-539; SF-539 (CNS Cancer)): 5.81E−7
Mean Optical Densities (SF-539; [1]): 0.138
Percent Growth (SF-539; [1]): −81%
Mean Optical Densities (SF-539; [2]): 0.327
Percent Growth (SF-539; [2]): −55%
Mean Optical Densities (SF-539; [3]): 0.540
Percent Growth (SF-539; [3]): −25%
Mean Optical Densities (SF-539; [4]): 1.950
Percent Growth (SF-539; [4]): 82%
Mean Optical Densities (SF-539; [5]): 2.183
Percent Growth (SF-539; [5]): 98%
GI50 (T-47D): 305 nM
CC50 (T-47D; read-out: LC50): > 100 µM
TGI (MALME-3M; MALME-3M (Melanoma)): 1.09E−6
Mean Optical Densities (MALME-3M; log10 concentration −4.0): 0.398
Percent Growth (MALME-3M; log10 concentration −4.0): −29%
Mean Optical Densities (MALME-3M; log10 concentration −5.0): 0.458
Percent Growth (MALME-3M; log10 concentration −5.0): −19%
Mean Optical Densities (MALME-3M; log10 concentration −6.0): 0.565
Percent Growth (MALME-3M; log10 concentration −6.0): 1%
Mean Optical Densities (MALME-3M; log10 concentration −7.0): 1.008
Percent Growth (MALME-3M; log10 concentration −7.0): 126%
Mean Optical Densities (MALME-3M; log10 concentration −8.0): 0.958
Percent Growth (MALME-3M; log10 concentration −8.0): 112%
GI50 (COLO 205; COLO 205): 147 nM
CC50 (COLO 205; COLO 205, read-out: LC50): 993 nM
TGI (ACHN; ACHN (Renal Cancer)): >1.00E−4
Mean Optical Densities (ACHN; log10 concentration −4.0): 0.343
Percent Growth (ACHN; log10 concentration −4.0): 5%
Mean Optical Densities (ACHN; log10 concentration −5.0): 0.347
Percent Growth (ACHN; log10 concentration −5.0): 5%
Mean Optical Densities (ACHN; log10 concentration −6.0): 0.358
Percent Growth (ACHN; log10 concentration −6.0): 6%
Mean Optical Densities (ACHN; log10 concentration −7.0): 1.080
Percent Growth (ACHN; log10 concentration −7.0): 75%
Mean Optical Densities (ACHN; log10 concentration −8.0): 1.302
Percent Growth (ACHN; log10 concentration −8.0): 96%
TGI (NCI/ADR-RES; NCI/ADR-RES (Breast Cancer)): >1.00E−4
Mean Optical Densities (NCI/ADR-RES; log10 concentration −4.0): 0.531
Percent Growth (NCI/ADR-RES; log10 concentration −4.0): 10%
Mean Optical Densities (NCI/ADR-RES; log10 concentration −5.0): 0.657
Percent Growth (NCI/ADR-RES; log10 concentration −5.0): 22%
Mean Optical Densities (NCI/ADR-RES; log10 concentration −6.0): 1.107
Percent Growth (NCI/ADR-RES; log10 concentration −6.0): 63%
Mean Optical Densities (NCI/ADR-RES; log10 concentration −7.0): 1.638
Percent Growth (NCI/ADR-RES; log10 concentration −7.0): 111%
Mean Optical Densities (NCI/ADR-RES; log10 concentration −8.0): 1.587
Percent Growth (NCI/ADR-RES; log10 concentration −8.0): 107%
GI50 (KM12; KM12): 275 nM
CC50 (KM12; KM12, read-out: LC50): > 100 µM
GI50 (MDA-MB-468; Homo sapiens, MDA-MB-468): 165 nM
CC50 (MDA-MB-468; Homo sapiens, MDA-MB-468, read-out: LC50): 803 nM
TGI (MDA-MB-468; MDA-MB-468 (Breast Cancer)): 3.64E−7
Mean Optical Densities (MDA-MB-468; [6]): 0.121
Percent Growth (MDA-MB-468; [6]): −72%
Mean Optical Densities (MDA-MB-468; [7]): 0.153
Percent Growth (MDA-MB-468; [7]): −64%
Mean Optical Densities (MDA-MB-468; [8]): 0.154
Percent Growth (MDA-MB-468; [8]): −64%
Mean Optical Densities (MDA-MB-468; [9]): 0.884
Percent Growth (MDA-MB-468; [9]): 82%
Mean Optical Densities (MDA-MB-468; [10]): 0.946
Percent Growth (MDA-MB-468; [10]): 93%
GI50 (MOLT-4; MOLT-4): 259 nM
CC50 (MOLT-4; MOLT-4, read-out: LC50): > 100 µM
TGI (PC-3; PC-3 (Prostate Cancer)): >1.00E−4
Mean Optical Densities (PC-3; PC-3, log10 concentration −4.0): 0.173
Percent Growth (PC-3; PC-3, log10 concentration −4.0): 2%
Mean Optical Densities (PC-3; PC-3, log10 concentration −5.0): 0.200
Percent Growth (PC-3; PC-3, log10 concentration −5.0): 9%
Mean Optical Densities (PC-3; PC-3, log10 concentration −6.0): 0.218
Percent Growth (PC-3; PC-3, log10 concentration −6.0): 14%
Mean Optical Densities (PC-3; PC-3, log10 concentration −7.0): 0.486
Percent Growth (PC-3; PC-3, log10 concentration −7.0): 85%
Mean Optical Densities (PC-3; PC-3, log10 concentration −8.0): 0.532
Percent Growth (PC-3; PC-3, log10 concentration −8.0): 97%
Mean Optical Densities (NCI-H226; [11]): 0.725
Percent Growth (NCI-H226; [11]): 4%
Mean Optical Densities (NCI-H226; [12]): 0.613
Percent Growth (NCI-H226; [12]): −9%
Mean Optical Densities (NCI-H226; [13]): 0.662
Percent Growth (NCI-H226; [13]): −1%
Mean Optical Densities (NCI-H226; [14]): 1.920
Percent Growth (NCI-H226; [14]): 89%
Mean Optical Densities (NCI-H226; [15]): 2.076
Percent Growth (NCI-H226; [15]): 101%
GI50 (OVCAR-4; OVCAR-4): 343 nM
CC50 (OVCAR-4; OVCAR-4, read-out: LC50): > 100 µM
